Laboratory results taken from patent US9650339B2, “Inhibitors of histone demethylases” (Gilead Sciences, Inc., priority 2013, dated 2017).
pEC50: −log10 of the molar value.

Legend:
Format in all cases: cell-based
MDA MB 231 = assay: Cell proliferation assay MDA MB 231; conditions: Homo sapiens; MDA MB 231, Breast carcinoma; method of Example 5
Procedure: (§1) MCF7 cells were seeded in multi well plates at a density optimized to give approximately 90% confluent cells at the time of harvest. Cells were incubated for 24 hours before addition of compound. Compounds were diluted in complete medium and added to the plates in duplicates. The final concentration of DMSO was maximum 0.5%. Complete medium used was DMEM with GlutaMAX containing 10% FBS and pen/strep.
(§2) 120 hours after addition of compounds, the plates were harvested and analyzed by ATPlite 1 Step (Perkin Elmer, cat no 6016739) according to the manufactures recommendation.
(§3) The assays were performed by the method of Example 5 by seeding the relevant cell line at a density optimized to give approximately 90% confluent cells at the time of harvest.

OVCAR-3 = assay: Cell proliferation assay OVCAR-3; conditions: Homo sapiens; OVCAR-3, Ovary; method of Example 5
Procedure: as §1, §2, §3

EJM = assay: Cell proliferation assay EJM; conditions: Homo sapiens, Myeloma, method of Example 5
Procedure: as §1, §2, §3

HCC1954 = assay: Cell proliferation assay HCC1954; conditions: Homo sapiens; HCC1954, Breast dutal carcinoma; method of Example 5
Procedure: as §1, §2, §3

MOLP2 = assay: Cell proliferation assay MOLP2; conditions: Homo sapiens, MOLP-2; MOLP2, Myeloma; method of Example 5
Procedure: as §1, §2, §3

KMS 12 BM = assay: Cell proliferation assay KMS 12 BM; conditions: Homo sapiens, Myeloma, method of Example 5
Procedure: as §1, §2, §3

ARPE19 = assay: Cell proliferation assay ARPE19; conditions: Homo sapiens, ARPE-19; ARPE19, Retinal pigmented epithelium; method of Example 5
Procedure: as §1, §2, §3

SK-MEL-28 = assay: Cell proliferation assay SK-MEL-28; conditions: Homo sapiens; SK-MEL-28, Melanoma; method of Example 5
Procedure: as §1, §2, §3

Jurkat Clone E6-1 = assay: Cell proliferation assay Jurkat Clone E6-1; conditions: Homo sapiens; Jurkat Clone E6-1, Acute T cell lymphoma; method of Example 5
Procedure: as §1, §2, §3

NCIH929 = assay: Cell proliferation assay NCIH929; conditions: Homo sapiens, NCI-H929; NCIH929, Myeloma; method of Example 5
Procedure: as §1, §2, §3

K562 = assay: Cell proliferation assay K562; conditions: Homo sapiens; K562, Chronic myelogenous leukemia; method of Example 5
Procedure: as §1, §2, §3

OPM2 = assay: Cell proliferation assay OPM2; conditions: Homo sapiens, OPM-2; OPM2, Myeloma; method of Example 5
Procedure: as §1, §2, §3

A375 = assay: Cell proliferation assay A375; conditions: Homo sapiens, A-375; A375, Melanoma; method of Example 5
Procedure: as §1, §2, §3

L1236 = assay: Cell proliferation assay L1236; conditions: Homo sapiens, L-1236; L1236, Hodgkin's lymphoma; method of Example 5
Procedure: as §1, §2, §3

MM1S = assay: Cell proliferation assay MM1S; conditions: Homo sapiens, MM1.S, Myeloma, method of Example 5
Procedure: as §1, §2, §3

HEPG2 = assay: Cell proliferation assay HEPG2; conditions: Homo sapiens; HEPG2, Hepatocellular carcinoma; method of Example 5
Procedure: as §1, §2, §3

L363 = assay: Cell proliferation assay L363; conditions: Homo sapiens, L-363; L363, Plasma cell leukemia; method of Example 5
Procedure: as §1, §2, §3

AMO1 = assay: Cell proliferation assay AMO1; conditions: Homo sapiens; AMO1, Plasmacytoma; method of Example 5
Procedure: as §1, §2, §3

RAJI = assay: Cell proliferation assay RAJI; conditions: Homo sapiens, Burkitt's lymphoma, method of Example 5
Procedure: as §1, §2, §3

SU DHL6 = assay: Cell proliferation assay SU DHL6; conditions: Homo sapiens, SU-DHL-6; SU DHL6, B cell lymphoma; method of Example 5
Procedure: as §1, §2, §3

U2OS = assay: Cell proliferation assay U2OS; conditions: Homo sapiens, Osteosarcoma, method of Example 5
Procedure: as §1, §2, §3

NALM6 = assay: Cell proliferation assay NALM6; conditions: Homo sapiens, NALM-6; NALM6, Lymphoblastic leukemia; method of Example 5
Procedure: as §1, §2, §3

BT474 = assay: Cell proliferation assay BT474; conditions: Homo sapiens, BT-474; BT474, Mammary ductal carcinoma; method of Example 5
Procedure: as §1, §2, §3

RPMI8226 = assay: Cell proliferation assay RPMI8226; conditions: Homo sapiens, RPMI-8226; RPMI8226, Myeloma; method of Example 5
Procedure: as §1, §2, §3

MIA PACA2 = assay: Cell proliferation assay MIA PACA2; conditions: Homo sapiens, MIA PaCa-2; MIA PACA2, Pancreas epithelial carcinoma; method of Example 5
Procedure: as §1, §2, §3

KARPAS620 = assay: Cell proliferation assay KARPAS620; conditions: Homo sapiens, Karpas-620; KARPAS620, Plasma cell leukemia; method of Example 5
Procedure: as §1, §2, §3

SK MM2 = assay: Cell proliferation assay SK MM2; conditions: Homo sapiens, SK-MM-2; SK MM2, Plasma cell leukemia; method of Example 5
Procedure: as §1, §2, §3

U266 = assay: Cell proliferation assay U266; conditions: Homo sapiens, U-266; U266, Myeloma; method of Example 5
Procedure: as §1, §2, §3

LP1 = assay: Cell proliferation assay LP1; conditions: Homo sapiens, LP-1; LP1, Myeloma; method of Example 5
Procedure: as §1, §2, §3

UH01 = assay: Cell proliferation assay UH01; conditions: Homo sapiens; UH01, Hodgkin's lymphoma; method of Example 5
Procedure: as §1, §2, §3

MM1R = assay: Cell proliferation assay MM1R; conditions: Homo sapiens, MM.1R, Myeloma, method of Example 5
Procedure: as §1, §2, §3

MOLP8 = assay: Cell proliferation assay MOLP8; conditions: Homo sapiens, MOLP-8; MOLP8, Myeloma; method of Example 5
Procedure: as §1, §2, §3

| Compound | pEC50 (MDA MB 231) | pEC50 (EJM) | pEC50 (MOLP2) | pEC50 (ARPE19) | pEC50 (NCIH929) | pEC50 (OPM2) | pEC50 (L1236) | pEC50 (HEPG2) | pEC50 (L363) | pEC50 (RAJI) | pEC50 (U2OS) | pEC50 (NALM6) | pEC50 (BT474) | pEC50 (RPMI8226) | pEC50 (MIA PACA2) | pEC50 (KARPAS620) | other results |
| --- | --- | --- | --- | --- | --- | --- | --- | --- | --- | --- | --- | --- | --- | --- | --- | --- | --- |
| CCN(CCN(C)C)C(=O)CNCc1cc(CNC(=O)C(F)(F)F)ccn1 [Compound 25, N-[(2-{[({[2-(dimethylamino)ethyl]-(ethyl)carbamoyl}-methyl)amino]methyl}-pyrtdin-4-yl)methyl]-2,2,2-trifluoroacetamide] | < 5.60 | < 5.60 | 5.60 to 6.60 | < 5.60 | 5.60 to 6.60 | 5.60 to 6.60 | < 5.60 | < 5.60 | < 5.60 | < 5.60 |  |  |  |  |  |  | pEC50 (OVCAR-3): < 5.60; pEC50 (HCC1954): < 5.60; pEC50 (KMS 12 BM): > 6.60; pEC50 (SK-MEL-28): < 5.60; pEC50 (Jurkat Clone E6-1): < 5.60; pEC50 (K562): 5.60 to 6.60; pEC50 (A375): 5.60 to 6.60; pEC50 (MM1S): > 6.60; pEC50 (AMO1): > 6.60; pEC50 (SU DHL6): > 6.60 |
| C(=N/C1CC1)/c1ccnc(CNCCCN2CCCC2)c1 [Compound 42, N-{[2-({[3-(pyrrolidin-1-yl)propyl]amino}-methyl)pyridin-4-yl]methylidene}-cyclopropanamine] | < 5.60 |  |  | < 5.60 |  | < 5.60 | < 5.60 | < 5.60 |  | < 5.60 | < 5.60 | > 6.60 | 5.60 to 6.60 | < 5.60 | < 5.60 | < 5.60 |  |
| CCN(CC)CCCCNCc1cc(/C=N/CCO)ccn1 [Compound 61, 2-[{[2-({[4-(diethylamino)-butyl]amino}-methyl)pyridin-4-yl]methylidene}-amino]ethan-1-ol] |  | < 5.60 |  | < 5.60 | < 5.60 |  |  | < 5.60 | < 5.60 | < 5.60 |  |  | > 6.60 | < 5.60 | < 5.60 | > 6.60 | pEC50 (SK MM2): 5.60 to 6.60; pEC50 (U266): < 5.60; pEC50 (LP1): < 5.60; pEC50 (UH01): < 5.60 |
| CCN(CCN(C)C)C(=O)CNCc1cc(C2OCC(Cc3ccccc3)CN2C(=O)C(F)(F)F)ccn1 (stereo not shown) [Compound 90, 2-[({4-[5-benzyl-3-(trifluoroacetyl)-1,3-oxazinan-2-yl]pyridin-2-yl}methyl)amino]-N-[2-(dimethylamino)-ethyl]-N-ethylacetamide] |  |  |  |  |  |  |  | < 5.60 |  | < 5.60 |  |  |  | 5.60 to 6.60 |  | > 6.60 | pEC50 (MM1R): > 6.60; pEC50 (MOLP8): > 6.60 |
| CCN(CC)CCCCNCc1cc(C=O)ccn1 [Compound 107, 2-({[4-(diethylamino)-butyl]amino}-methyl)pyridine-4-carbaldehyde] | < 5.60 |  | < 5.60 | < 5.60 |  | 5.60 to 6.60 |  |  |  |  | < 5.60 | > 6.60 | > 6.60 | < 5.60 | < 5.60 |  |  |
